For one experiment, the target named is T1, Human GPR120 short form (Homo sapiens, UniProt Q5NUL3).
T1 construct: expressed in transfected cells
T1 sequence (Q5NUL3 1-361): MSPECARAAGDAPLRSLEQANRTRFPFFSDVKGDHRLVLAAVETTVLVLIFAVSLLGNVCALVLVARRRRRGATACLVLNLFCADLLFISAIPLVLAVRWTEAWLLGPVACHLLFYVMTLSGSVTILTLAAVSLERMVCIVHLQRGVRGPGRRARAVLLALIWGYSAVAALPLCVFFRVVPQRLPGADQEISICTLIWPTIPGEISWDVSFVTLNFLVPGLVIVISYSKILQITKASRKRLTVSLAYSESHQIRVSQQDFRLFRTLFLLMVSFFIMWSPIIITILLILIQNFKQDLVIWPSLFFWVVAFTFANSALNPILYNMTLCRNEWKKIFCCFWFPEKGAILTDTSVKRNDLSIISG
Description: Human GPR120 calcium flux assay, Procedure Calcium A. Format: cell-based. Conditions: HEK-293 cells, FLIPR, 2500 cells/well; read-out: GPR120 Ca2+ Assay A EC50. As to the method:
These cells are first loaded with the Ca^+2 sensitive dye, Fluo-4 NR. Upon stimulation, intracellular released Ca^+2 can bind to the dye and alter its fluorescence intensity. This increase in fluorescence signal, and thus the flux in intracellular [Ca^2+], is detected and quantitated by fluorescence imaging using a FLIPR reader. The effect of the agonist is measured as a function of concentration and used to calculate an EC50 based upon a response curve.
In this procedure 2500 cells/well were employed.
A Human GPR120 clone (Genbank accession number NM_001195755.1) was placed into the pcDNA3.1 mammalian expression vector carrying the neomycin resistance gene. A stable mammalian cell was generated by placing the above clone into a HEK293 background. […] Cells were split 2 times a week to keep the cells in the log-phase growth.
In preparation for the assay, HEK cells stably transfected with Human GPR120 (2.5K cells per well in 25 uL growth medium) were seeded into 384-well plates and then incubated overnight (37° C., 5% CO2). The next day, the media was changed to 20 μL assay buffer and the cell starved for 1 h at 37° C. The dye loading solution (2× dye) was prepared using 10 mL assay buffer, 100 μL of 250 mM probenecid, 1 bottle of Component A, and 20 μl of dye in DMSO. Twenty μL of the 2× dye loading buffer was then added to each well. The plates were incubated at 37° C. for 30 min, then at room temperature for an additional 15 minutes, before performing the assay on FLIPR.
The assay was performed on a FLIPR plate reader using the following parameters. Baseline was read for 10 seconds at 1 sec intervals. The program was set to transfer 10 μL of ligand from compound plate to cell plate after baseline reading. Aspiration was executed at: 10 μL/sec speed, 4.6 μL height; Dispensing was executed at: 30 μL/sec speed, 45 μL height. After compound addition, each well was read for 300 sec, with measurements collected at 1 sec intervals.
The kinetic data from the FLIPR was based upon a 5 minute window for data collection. The fluorescence of each sample well was used for individual calculations of a normalized RFU value, which was defined as maximum response minus the minimum response. […] The Fitting Equation was: Y=Bottom+(Top-Bottom)/(1+10^((Log EC50−X)*HillSlope)), where X is the log of the concentration and Y is the response.
For orientation: Calcium assays in cells follow changes in intracellular calcium, usually with a dye or a luminescent sensor.

A further experiment has as its system C57b16 mouse. Description: C57b16 mouse OGTT. Conditions: dosed 30 min prior to glucose PO 3 g/kg. In kind it is in vivo. As to the method:
(§1) Male, C57bl/6J Mice were ordered in at 8 weeks of age from Jackson Labs. Individual mice weighed anywhere in the range of 25-30 grams on study day. The mice were fasted, with removal of food occurring at 7 am on the morning of the study. Animals were moved into the room at 10:00 am, to give them time to acclimate. Glucose (insulin syringes) was drawn up either the night before or the morning of the study. Glucose was dosed (IP) at 1.5 g/kg at 7.5 ml/kg (20% glucose straight TEKNOVA, 250 ml sterile bottle w/ catalogue number G0525). Test compounds were kept spinning and were only drawn into the syringes prior to study commencement. Animals were bled via tail snip to determine basal glucose levels prior to dosing of treatments. An Ascensia BREEZE Blood Glucose Monitoring System by Bayer (using unique 10-test disks) was used for determining glucose levels. The bleeds started at approximately 12:45 pm and dosing started, at 1-minute intervals, immediately after. All groups were dosed 30 minutes prior to glucose administration at a dose volume of 10 ml/kg (the dose volume was calculated separately for each individual animal). Thirty minutes after the first dose animals were bled again for a second baseline, or T=0, and immediately dosed with glucose via an i.p. injection. The exact dose volume for glucose was also calculated separately for each individual animal. Glucose measurements were taken at −30 min prior to compound dose, at t=0 (immediately prior to glucose dose), and at 15, 30, 45, 60, 90 min post glucose dose.
(§2) Glucose values were entered into an Excel sheet and graphed in GraphPad Prism. The following were calculated from Prism: Change from −30 to 0 BSLN Glucose, Raw Glucose AUC −30 to 90 min, Delta Glucose AUC −30 to 90 min, Raw Glucose AUC 0 to 90 min, Delta Glucose AUC 0 to 90 min.
The assay design is the same as that described above for the C57b16 mouse IPGTT. The difference is that glucose was dosed PO at 3 g/kg, 7.5 ml/kg of 40% glucose.

Experiment [1] concerns the target T2, short form of the GPR120 receptor (Homo sapiens, UniProt Q5NUL3).
T2 construct: host or cells: PathHunter CHO-K1 GPR120S β-Arrestin Cell Line
T2 sequence (Q5NUL3 1-361): T1 sequence (Q5NUL3 1-361)
Description: Human GPR120 DiscoveRx PathHunter beta-arrestin assay, Procedure β-arrestin B. In kind it is cell-based. The following applies: PathHunter CHO-K1 GPR120S β-Arrestin cells, 5000 cells/well; read-out: hGPR120 β-arrestin B EC50. From the text:
The binding of an agonist (medium/long chain fatty acids or small molecule agonists) to the G-protein-coupled receptor GPR120 activates phospholipase C, leading to release of intracellular Ca^+2 through the generation of inositol 1,4,5-trisphosphate (InsP3 or IP3). GPR120 activation can also trigger intracellular signaling via recruitment of Beta-Arrestin. In the present method, agonist-induced activation of the human GPR120 receptor is monitored through the use of PathHunter CHO-K1 GPR120 Beta-Arrestin Cell Line engineered by DiscoveRx, as detailed below. The cell lines are designed to co-express both the ProLink/Enzyme Donor (PK)-tagged GPCR and the Enzyme […] (EA)-tagged Beta-Arrestin fusion proteins. Upon GPR120 receptor stimulation/activation, the EA-tagged Beta-Arrestin portion is translocated to the tagged receptor, where the two enzyme fragments are brought within close proximity. Under these conditions, these fragments can interact and form an active Beta-gal enzyme complex through Enzyme Fragment Complementation (EFC). This active Beta-gal complex can enzymatically hydrolyse the substrate to produce a detectable light signal; therefore, activation as a function of agonist concentration can be expressed as an EC50 value to determine relative compound activities. This in vitro assay therefore serves to assess compound agonist activity of the GPR120.
In Procedure β-arrestin B the cells used were PathHunter CHO-K1 GPR120S β-Arrestin Cell Line, expressing the short form of the GPR120 receptor (Accession #NM 181745), with 5000 cells/well.
The selected CHO-K1 GPR120 β-Arrestin cells were cultured in Ham's F12 media supplemented with 10% fetal bovine serum (FBS), 1% Glutamine, 1×p/s, 800 μg/mL G418 and 300 μg/mL Hygromycin B (for selection). Cell stocks were maintained and grown in a sub-confluent state using standard cell culture procedures. The day before the experiment, the cells were harvested with non-enzymatic cell dissociation buffer and re-suspended in complete growth media at the desired concentration. A Corning 384-plate was then seeded with the proper number of cells in a volume of 25 μL, per well. The seeded plates were incubated overnight at 37° C.
On the day of the experiment, the Assay Buffer containing (a) HBSS with Ca^++ and Mg^++, (b) 20 mM HEPES, and (c) 0.1% BSA stabilizer (pH 7.4) was prepared. The growth medium was gently removed from the cell plates and 20 μL of Assay Buffer added to each well. The plate was then incubated at 37° C. for 60 min. Test compounds were serially diluted in Assay Buffer to desired concentrations (more particularly to one or more of the following μM concentrations: 25, 12.5, 6.25, 3.125, 1.5625, 0.78125, 0.390625, 0.1953125, 0.09765625, 0.048828125, 0.024414063, 0.012207031). Five μL of compound dilution was then added to each well and the plate incubated at 37° C. for 90 min. The detection reagents were prepared according to the manufacture's instruction. Twelve μL of the detection reagents were added to each well and the plate incubated at room temperature for 60 min.
The plates were read on an EnVision instrument, using Protocol name: Luminescence, Plate type: 384 Costar, Measurement height: 3 mm, Measurement time: 1 s, Aperture: 384 Plate aperture. The % activity relative to the positive control was calculated using the following equation:
The % Activity values were plotted versus the concentration of test compound and fitted to a sigmoidal dose-response curve with a Hill slope=1 (fixed value) using nonlinear regression with GraphPad Prism 5.0 to calculate the EC50 values. The Fitting Equation was: Y=Bottom+(Top-Bottom)/(1+10^((Log EC50−X)*HillSlope)), where X is the log of the concentration and Y is the response.

For a further experiment, the system named is C57bl/6J Mice. Briefly: GPR120 C57bl6 mouse IPGTT. Format: in vivo. The following applies: dosed 30 min prior to glucose IP 1.5 g/kg. The procedure:
as §1, §2

Bounds are passed on as bounds.

Regarding `Cc1ccc(-c2snc(C(C)C)c2COc2c(F)cc(CCC(=O)O)cc2F)c(F)c1` [Cpd 191], the 50% effective concentration (EC50) (usually the midpoint of the concentration-response curve) on Human GPR120 short form came to 323 nM.

On to `CCc1ccc(-c2cc(C(F)(F)F)sc2COc2ccc(CCC(=O)O)c(C)c2C)cc1` [Cpd 250, 3-(4-{[3-(4-Ethylphenyl)-5-(trifluoromethyl)thiophen-2-yl]methoxy}-2,3-dimethylphenyl)propanoic acid], for which the EC50 at Human GPR120 short form was found to be 3230 nM.

Turning to `OCCCc1ccc(OCc2c(Cl)nsc2-c2ccc(Cl)cc2)c(F)c1F` [Cpd 102, 3-(4-((3-chloro-5-(4-chlorophenyl)isothiazol-4-yl)methoxy)-2,3-difluorophenyl)propan-1-ol], the “C57 OGTT 3 mg/kg” value in the experiment with C57b16 mouse is reported as −32.

Consider `O=C(O)CCc1ccc(OCc2c(C(F)(F)F)nsc2-c2ccc(Cl)cc2)c(Cl)c1Cl` [Cpd 181, 3-(2,3-Dichloro-4-{[5-(4-chlorophenyl)-3-(trifluoromethyl)isothiazol-4-yl]methoxy}phenyl)propanoic acid], for which the EC50 at Human GPR120 short form is 274 nM; in experiment [1], 819 nM.

As for `Cc1c(CCC(=O)O)ccc(OCc2c(C(C)(C)C)nsc2C(F)(F)F)c1C` [Cpd 198, 3-(4-{[3-tert-Butyl-5-(trifluoromethyl)isothiazol-4-yl]methoxy}-2,3-dimethylphenyl)propanoic acid], the values for the EC50 (on Human GPR120 short form; in experiment [1]) were 405 nM and 1940 nM, respectively.

As for `Cc1ccc(-c2snc(Cl)c2COc2c(F)cc(CCC(=O)O)c(F)c2F)c(F)c1` [Cpd 107, 3-(4-{[3-Chloro-5-(2-fluoro-4-methylphenyl)isothiazol-4-yl]methoxy}-2,3,5-trifluorophenyl)propanoic acid], the EC50 on Human GPR120 short form is 89 nM; in experiment [1], 118 nM.

In the case of `COc1ccc(-c2nsc(C(F)(F)F)c2COc2ccc(CCC(=O)O)c(C)c2C)c(F)c1` [Cpd 120, 3-(4-{[3-(2-Fluoro-4-methoxyphenyl)-5-(trifluoromethyl)isothiazol-4-yl]methoxy}-2,3-dimethylphenyl)propanoic acid], the EC50 at Human GPR120 short form is 107 nM; in experiment [1], 310 nM.

Turning to `O=C(O)CCc1cc(F)c(OCc2c(-c3ccc(Cl)cc3)nsc2C(F)(F)F)c(F)c1` [Cpd 79, 3-(4-[[3-(4-chlorophenyl)-5-(trifluoromethyl)-1,2-thiazol-4-yl]methoxy]-3,5-difluorophenyl)propanoic acid], the “C57 IPGTT 10 mg/kg” value in the experiment with C57bl/6J Mice was −60.

As for `O=C(O)CCc1ccc(OCc2c(-c3ccc(Cl)cc3)nsc2C(F)(F)F)c(F)c1F` [Cpd 106, 3-(4-[[3-(4-chlorophenyl)-5-(trifluoromethyl)-1,2-thiazol-4-yl]methoxy]-2,3-difluorophenyl)propanoic acid], in the experiment on C57bl/6J Mice, the “C57 IPGTT 10 mg/kg” value was −34.

Regarding `CCc1ccc(-c2nsc(C(F)(F)F)c2COc2c(F)cc(CCC(=O)O)cc2F)cc1` [Cpd 70, 3-(4-[[3-(4-ethylphenyl)-5-(trifluoromethyl)-1,2-thiazol-4-yl]methoxy]-3,5-difluorophenyl)propanoic acid], the “C57 IPGTT 30 mg/kg” value in the experiment with C57bl/6J Mice (30 mg/kg) is listed as −88.

Consider `CCc1ccc(-c2nsc(C(F)(F)F)c2COc2c(F)ccc(CC(C)CO)c2F)cc1` (centres unmarked) [Cpd 251, 3-(3-{[3-(4-Ethylphenyl)-5-(trifluoromethyl)isothiazol-4-yl]methoxy}-2,4-difluorophenyl)-2-methylpropan-1-ol], for which the EC50 at Human GPR120 short form was greater than 5000 nM.

Consider `CC(C)Oc1cc(C(F)(F)F)sc1COc1c(F)cc(CCC(=O)O)cc1F` [Cpd 16, 3-(3,5-Difluoro-4-{[3-(1-methylethoxy)-5-(trifluoromethyl)thiophen-2-yl]methoxy}phenyl)propanoic acid], for which the half-maximal effective concentration (EC50) at Human GPR120 short form is 382 nM; in experiment [1], 1510 nM.

Source of the values: US10118922B2 (Janssen Pharmaceutica NV, priority 2013, dated 2018).
